Source: PubChem BioAssay AID330 (DTP/NCI, 2004)
“And” between values parts separate entries of the source, which are not always exact repeats. Equal entries are not always repeated. Toxic doses and inconclusive results are not listed. How the source made its calls: active means survival T/C of 150% or more; inactive means T/C below 125% in these data.

System: P388 leukemia ip, CD2F1 mice, survival T/C
Assay: NCI In Vivo Anticancer Drug Screen. Data for tumor model P388 Leukemia (intraperitoneal) in CD2F1 (CDF1) mice
Conditions: endpoint: median survival time, higher = longer survival
Summary of the method: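 Mice carrying the transplanted tumor received test compound or vehicle. Survival was recorded in each group, and the value is the treated-group measurement divided by that of the vehicle-treated control group.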

[1] = dose: 60.0 mg/kg/injection, schedule: Q01DX005 (ip), vehicle: Klucel (hydroxypropylcellulose) (HPC)
[2] = dose: 120.0 mg/kg/injection, schedule: Q01DX005 (ip), vehicle: Klucel (hydroxypropylcellulose) (HPC)
[3] = dose: 240.0 mg/kg/injection, schedule: Q01DX005 (ip), vehicle: Klucel (hydroxypropylcellulose) (HPC)
[4] = dose: 60.0 mg/kg/injection, schedule: Q01DX005 (ip), vehicle: saline with Tween-80
[5] = dose: 120.0 mg/kg/injection, schedule: Q01DX005 (ip), vehicle: saline with Tween-80
[6] = dose: 240.0 mg/kg/injection, schedule: Q01DX005 (ip), vehicle: saline with Tween-80
[7] = dose: 50.0 mg/kg/injection, schedule: Q01DX005 (ip), vehicle: saline
[8] = dose: 25.0 mg/kg/injection, schedule: Q04DX003 (ip), vehicle: saline with Tween-80
[9] = dose: 50.0 mg/kg/injection, schedule: Q04DX003 (ip), vehicle: saline with Tween-80

Measured: T/C

OCc1ccc(Cl)cc1O
inactive: dose: 12.5 mg/kg/injection, schedule: Q01DX009 (ip), vehicle: distilled water + Tween-80 100 % of control | dose: 25.0 mg/kg/injection, schedule: Q01DX009 (ip), vehicle: distilled water + Tween-80 100 % of control | dose: 50.0 mg/kg/injection, schedule: Q01DX009 (ip), vehicle: distilled water + Tween-80 105 % of control | dose: 100.0 mg/kg/injection, schedule: Q01DX009 (ip), vehicle: distilled water + Tween-80 107 % of control | dose: 200.0 mg/kg/injection, schedule: Q01DX009 (ip), vehicle: distilled water + Tween-80 116 % of control

COc1ccccc1C1OC(=N)C(=S)N1C (configuration not stated)
inactive: [1] 107 % of control | [2] 111 % of control | [3] 113 % of control

O=C=Nc1nc(Cl)c(SC(F)(F)F)c(Cl)n1
inactive: [4] 97 % of control | [5] 98 % of control | [6] 108 % of control

C/C1=C/C(O)C/C(C)=C\C(O)C(=O)/C=C/C2C(CC1)C2(C)C (configuration not stated)
inactive: dose: 2.5 mg/kg/injection, schedule: Q01DX005 (ip), vehicle: distilled water + Tween-80 + alcohol 104 % of control | dose: 5.0 mg/kg/injection, schedule: Q01DX005 (ip), vehicle: distilled water + Tween-80 + alcohol 105 % of control | dose: 10.0 mg/kg/injection, schedule: Q01DX005 (ip), vehicle: distilled water + Tween-80 + alcohol 100 % of control | dose: 20.0 mg/kg/injection, schedule: Q01DX005 (ip), vehicle: distilled water + Tween-80 + alcohol 108 % of control

O=C1CN(CCN2CCOCC2)CC(=O)N2Cc3ccccc3CN12
inactive: dose: 50.0 mg/kg/injection, schedule: Q01DX005 (ip), vehicle: saline with Tween-80 108 % of control | dose: 100.0 mg/kg/injection, schedule: Q01DX005 (ip), vehicle: saline with Tween-80 98 % of control | dose: 200.0 mg/kg/injection, schedule: Q01DX005 (ip), vehicle: saline with Tween-80 101 % of control

CCN(CC)C1=C(C)C2C(C)(C)N=NC12C(=O)OC (configuration not stated)
inactive: [7] 98 % of control | dose: 100.0 mg/kg/injection, schedule: Q01DX005 (ip), vehicle: saline 102 % of control | dose: 200.0 mg/kg/injection, schedule: Q01DX005 (ip), vehicle: saline 116 % of control

c1c(NC2=NCCO2)cc2c3c1CCCN3CCC2
inactive: dose: 12.5 mg/kg/injection, schedule: Q04DX003 (ip), vehicle: saline with Tween-80 90 % of control | [8] 100 % of control | [9] 109 % of control

Cn1c(=S)[nH]n(CCOc2ccccc2)c1=S
inactive: [4] 118 % of control | [5] 98 % of control and 99 % of control and 108 % of control | [6] 109 % of control and 123 % of control and 97 % of control | dose: 480.0 mg/kg/injection, schedule: Q01DX005 (ip), vehicle: saline with Tween-80 105 % of control and 96 % of control

CCC(O)C1Sc2ccccc2N1C (configuration not stated)
inactive: [4] 104 % of control | [5] 101 % of control | [6] 106 % of control

O=[N+]([O-])c1cc2[nH]cnc2c([N+](=O)[O-])c1N1CCOCC1
inactive: [8] 100 % of control | [9] 104 % of control | dose: 100.0 mg/kg/injection, schedule: Q04DX003 (ip), vehicle: saline with Tween-80 97 % of control

CCCCCCCCCCCCC1=C(O)C(=O)C=C(O)C1=O
inactive: dose: 12.5 mg/kg/injection, schedule: Q01DX005 (ip), vehicle: suspension in saline 102 % of control | dose: 25.0 mg/kg/injection, schedule: Q01DX005 (ip), vehicle: suspension in saline 108 % of control | [7] 99 % of control | dose: 50.0 mg/kg/injection, schedule: Q01DX005 (ip), vehicle: suspension in saline 112 % of control

C[Si](C)(C)c1c[nH]c(=O)[nH]c1=O
inactive: dose: 50.0 mg/kg/injection, schedule: Q01DX009 (ip), vehicle: saline with Tween-80 102 % of control | dose: 100.0 mg/kg/injection, schedule: Q01DX009 (ip), vehicle: saline with Tween-80 98 % of control and 96 % of control | dose: 200.0 mg/kg/injection, schedule: Q01DX009 (ip), vehicle: saline with Tween-80 102 % of control

CC(O)(C#Cc1ccccc1)c1nc2ccccc2s1 (configuration not stated)
inactive: [1] 101 % of control | [2] 101 % of control | [3] 100 % of control

N#CC1C(=O)NC(=O)C(C#N)C1c1ccc(Cl)cc1Cl (configuration not stated)
inactive: dose: 50.0 mg/kg/injection, schedule: Q01DX009 (ip), vehicle: Klucel (hydroxypropylcellulose) (HPC) 96 % of control | dose: 100.0 mg/kg/injection, schedule: Q01DX009 (ip), vehicle: Klucel (hydroxypropylcellulose) (HPC) 105 % of control | dose: 200.0 mg/kg/injection, schedule: Q01DX009 (ip), vehicle: Klucel (hydroxypropylcellulose) (HPC) 107 % of control
